Measured values: patent publication US8703727B2, “Nanotechnology formulation of poorly soluble compounds” (Aphios Corporation, priority 2010, dated 2014)
In brackets after ≈: the same amount, converted by molar mass. Read-outs that look alike come from different tables or passages of the source. Values belong to the compound of their own block, whether it stands above or below them.

Key:
[1] = Preliminary solubility experiments in methanol; type: physicochemical
Method: Samples were weighed into 20-mL scintillation vials and 10 mL of methanol pipetted into each vial. […] An additional 10 mL of methanol was added to each of these vials. Now sample 3 dissolved completely, but particles still remained in sample 5. An additional 20 mL of methanol was added to sample 5, but on sonication, the small quantity of particles still remained.

[2] = Solubility of S4 and S5 in methanol and ethanol (saturated solution, HPLC); type: physicochemical; conditions: 25° C.; for solubility at 5 min: organic solvent or mixture, thermodynamic from solid
Method: HPLC Method • Column: Phenomenex Luna C18(2), 15-cm×4.6 mm. • Buffer Concentrate (BC): 100 mL Et3N×80 mL 85% H3PO4 to 1000 mL with water. • Mobile Phase B=250 mL ACN+10 mL of BC to 1000 mL with water. • Mobile Phase C=100% ACN • Isocratic Mixture: 60% Phase B and 40% Phase C. • Alternatively, use 55% Acetonitrile with 3-mL Buffer Concentrate/1000 mL • Flow=1.5 mL/min Temperature=30° C. Wavelength=330 nm Injection=20 μL
Procedure for Formation of a Saturated Solution • 1. Weigh in duplicate approximately 100 milligrams of each standard into 1.5 mL mini-centrifuge tubes. • 2. Add 1.00 mL of Methanol to a S4 tube and 1.00 mL of Ethanol to the other S4 tube. Add 1.00 mL of Methanol to a S5 tube and 1.00 mL of Ethanol to the other S5 tube. • 3. Shake all four tubes for 5 minutes at room temperature (25° C.). • 4. Centrifuge at 6000 rpm for 10 minutes. The supernatant should be a saturated solution. • 5. Assay the supernatants by HPLC. Use a 20/1000 dilution in methanol. The target absorbance is 0.40 AU. A reasonable absorbance range is 0.10 to 1.20. If the absorbance that is found is outside of this range, dilute appropriately to bring the absorbance close to 0.40.

[3] = HPLC of old standard solutions stored at room temperature; type: physicochemical
[4] = Solubility of aminoflavone in Freon-22 / ethanol (BPN-06, BPN-07, BPN-08); type: physicochemical; conditions: 40 °C, organic solvent or mixture, thermodynamic from solid
Method: Three supercritical, critical or near critical fluid solubility experiments were conducted on the aminoflavone prodrug (NSC 686288). The experiments were conducted with 100% (neat) Freon-22 at 3,000 psig (BPN-06), and 40° C., 90% Freon-22/10% ethanol at 3,000 psig and 40° C. (BPN-07) and 80% Freon-22/20% ethanol at 3,000 psig and 40° C. (BPN-08). These supercritical, critical or near critical fluid and conditions were selected on the basis of previous experience.
A 5.0 mL sample loop was utilized and each collection vial contained 5.0 ml of the same liquid as the sample loop rinse. Methanol was used as the collection fluid and sample rinse in BPN-06; ethanol was utilized as the collection fluid and sample rinse in BPN-07 and BPN-08. Samples were collected after circulation for 60, 75, 90, 105 and 120 minutes; the sample loop was then flushed of CO2 (except BPN-06). The fractions were then analyzed by HPLC. Each solubility data point is the average of 5 measurements.

[5] = molar-equivalent basis; cited from earlier work
[6] = HPLC analysis of 0.45 micron filter filtrate of BPN-20 in 1% PVA; type: physicochemical
Method: Procedure: • 1. Write A, B, C, and D on each of four 0.45 micron 47 mm Nylon 66 filters with a soft pencil. • 2. Weigh each of the filters. • 3. Draw Methanol through Filter A and set on a paper towel to dry. • 4. Weigh about 10 mg of aminoflavone onto Filter B and get an accurate weight. • 5. Draw 100 mL of Methanol through Filter B and bring to 100 mL in a 100 mL vol flask • 6. Set Filter B aside to dry on a paper towel. • 7. Draw 20 mL of 1% PVA through Filter C and set on a paper towel to dry. • Save the Filtrate for HPLC Assay • 8. Draw 20 mL of BPN-20 yellow ppt through Filter D and set on a paper towel to dry. • Save the Filtrate for HPLC Assay • 9. Place all four filters in the vacuum oven for 1 hour at 60 C. Then weigh the filters. • 10. Draw 100 mL of Methanol through Filters C and D. Bring to 100 mL with Methanol. • 11. Dry, vacuum oven, and get an accurate weight on filters C and D.

[7] = HPLC analysis for degradation after supercritical fluid particle size reduction; type: physicochemical; conditions: nitrogen 3,000 psig, 60 minutes, rapid depressurization
Method: Three nanoparticles experiments were conducted—two with surrogate compounds and one with aminoflavone prodrug (Sample 5). In general, the poorly water-soluble anticancer compound was first saturated with water by placement in the vapor generated by a 39° C. temperature water bath for 60 minutes. The water-saturated sample was then frozen in a −80° C. freezer for 60 minutes. The frozen particles were then placed in the chamber of the nanoparticles apparatus (FIG. 2) and contacted with nitrogen at 3,000 psig for 60 minutes to ensure maximum saturation of the hydrophobic anticancer compound by the SFS. The materials were then rapidly depressurized, discharging the chamber contents into a collection container. The experiments were conducted following Standard Operating Procedure SOP #APH-S0603 and Drawing #9706-001 Rev 2 in Appendix C.
Three samples in aluminum weigh boats with contents weight of 0.4 to 0.5 mg was provided. To obtain the assay solution, each boat was placed in a sonicator bath filled to a height of 3 mm with water. Ten milliliters of methanol was pipetted into the boat and the sonicator was turned on for 20 seconds. The yellow residue in the boat dissolved completely in less than 5 seconds. After sonication, the sample was drawn back into the 10 mL pipette and transferred to a 20 mL scintillation vial to await HPLC assay. […]

[8] = cited from earlier work
[9] = Solubility of aminoflavone in DI water and 1% PVA (HPLC); type: physicochemical; conditions: for solubility at 5 min: thermodynamic from solid
Method: Procedure: • 1. Weigh 5-10 mg of Aminoflavone into two 20 mL scintillation vials. • 2. Pipette 10 mL of water into Vial A and 10 mL of 1% PVA into Vial B. • 3. Shake the vials gently for about 5 minutes. Then let stand for 30 minutes. • 4. Carefully withdraw 0.9 mL from each vial for HPLC Analysis • 5. Shake the samples again and transfer to 50 mL Centrifuge tubes. • 6. Centrifuge for 20 minutes at 2500 rpm • 7. Again carefully withdraw 0.9 mL from each for HPLC Analysis.
Shaking the Aminoflavone in either water or 1% Aqueous PVA results in a dispersion of small particles that are difficult to see. They are suspended in the solution. HPLC duplication will be very poor since the “solution” is not uniform suspension of different size particles.

Compound: C=CCNC1=C2C[C@@H](C)C[C@H](OC)[C@H](O)[C@@H](C)/C=C(\C)[C@H](OC(N)=O)[C@@H](OC)/C=C\C=C(/C)C(=O)NC(=CC1=O)C2=O [Sample 4, 17-Allylamino Demethoxygeldanamycin (17-AAG)]
S = mg/100 mL (preliminary solubility in methanol) [1]: >220 mg/100 mL
Solubility (mg/100 mL) ([2]; Ethanol): 1478 mg/100 mL
Solubility (mg/100 mL) ([2]; Methanol): 4260 mg/100 mL
solubility at 5 min ([2]; Ethanol): 1480 µg/mL (≈ 2520 µM)
solubility at 5 min ([2]; Methanol): 4260 µg/mL (≈ 7270 µM)
decomposition of old standard solution ([3]; methanol solution exposed to room light and temperature for several weeks): only tiny decomposition peaks

S = mg/100 mL (preliminary solubility in methanol) [1]: >87 mg/100 mL
Compound: CCCCCCCCCCCCCCC[C@H](O)[C@@H](N)CO [Sample 3, Safingol]

solubility ([4]; BPN-06: Freon-22 100 vol %, ethanol 0 vol %, 3,000 psig and 40° C.): 65 µg/mL (≈ 203 µM)
solubility ([4]; BPN-07: Freon-22 90 vol %, ethanol 10 vol %, 3,000 psig and 40° C.): 108 µg/mL (≈ 337 µM)
solubility ([4]; BPN-08: Freon-22 80 vol %, ethanol 20 vol %, 3,000 psig and 40° C.): 116 µg/mL (≈ 362 µM)
S = mg/100 mL (preliminary solubility in methanol) [1]: 48 mg/100 mL
solubility ([1]; organic solvent or mixture, thermodynamic from solid, read-out: measured solubility in methanol): 480 µg/mL (≈ 1500 µM)
Solubility (mg/100 mL) ([2]; Ethanol): 240 mg/100 mL
Solubility (mg/100 mL) ([2]; Methanol): 280 mg/100 mL
solubility at 5 min ([2]; Ethanol): 240 µg/mL (≈ 749 µM)
solubility at 5 min ([2]; Methanol): 280 µg/mL (≈ 874 µM)
solubility in 1% PVA [6]: essentially insoluble
product degradation of treated materials versus untreated controls (HPLC) [7]: did not indicate any product degradation
solubility at 5 min ([9]; 1% PVA in water, aqueous with cosolvent or surfactant or cyclodextrin, 1% PVA after centrifugation, average, read-out: average (actual) solubility): 0.22 µg/mL (≈ 0.687 µM)
solubility at 5 min ([9]; 1% PVA in water, aqueous with cosolvent or surfactant or cyclodextrin, 1% PVA after centrifugation, read-out: Solubility): 0.2 µg/mL (≈ 0.624 µM)
solubility at 5 min ([9]; 1% PVA in water, aqueous with cosolvent or surfactant or cyclodextrin, 1% PVA, after shaking, before centrifugation, read-out: Solubility): 14 µg/mL (≈ 43.7 µM)
solubility at 5 min ([9]; 1% PVA in water, aqueous with cosolvent or surfactant or cyclodextrin, 1% PVA, before centrifugation, average, read-out: average (apparent) solubility): 12.1 µg/mL (≈ 37.6 µM)
average (apparent) solubility ([9]; 1% PVA, before centrifugation, average): 12 µg/mL
average solubility ([9]; DI water after centrifugation, average): 0.31 µg/mL
solubility at 5 min ([9]; DI water, water, DI water after centrifugation, average, read-out: average solubility): 0.33 µg/mL (≈ 1.03 µM)
solubility at 5 min ([9]; DI water, water, DI water after centrifugation, read-out: Solubility): 0.34 µg/mL (≈ 1.06 µM)
solubility at 5 min ([9]; DI water, water, DI water, after shaking, before centrifugation, read-out: Solubility): 7.84 µg/mL (≈ 24.5 µM)
solubility at 5 min ([9]; DI water, water, DI water, before centrifugation, average, read-out: average solubility): 10.7 µg/mL (≈ 33.3 µM)
Compound: Cc1c(F)c(N)c2c(=O)cc(-c3ccc(N)c(F)c3)oc2c1F [Sample 5, Aminoflavone]
toxicity of intravenous treatments versus prodrug NSC 710464D [5]: less toxic
solubility in DMSO ([8]; DMSO): readily soluble
solubility ([8]; pH 4 and pH 7): 0.126 to 0.188 µg/mL
aqueous solubility ([8]; pH 10 (glycine buffer)): 0.65 µg/mL (≈ 2.03 µM)

S = mg/100 mL (preliminary solubility in methanol) [1]: >163 mg/100 mL
decomposition of old standard solution ([3]; methanol solution stored at room temperature on the laboratory bench): showed decomposition products
Compound: CC1=C(/C=C/C(C)=C/C=C/C(C)=C/C(=O)Nc2ccc(O)cc2)C(C)(C)CCC1 [Sample 2, Fenretinide (4HPR)]
